Our source for the EC50 and IC50 values is US20080107623A1, “Inhibitors of Hepatitis C Virus” (Bristol-Myers Squibb Company, priority 2006, published 2008).

Read-outs that look alike come from different tables or passages of the source. A value given as a limit tells only on which side of the number the result lay.

Assay [1] concerns HCV replicon in HUH-7 cells. The assay is described as follows: HCV replicon FRET assay. In kind it is cell-based, HCV strain 1b. Particulars: Hepatitis C virus. The text has this: An HCV replicon whole cell system was established as described by Lohmann V, Korner F, Koch J, Herian U, Theilmann L, Bartenschlager R., Science 285(5424):110-3 (1999). This system enabled us to evaluate the effects of our HCV Protease compounds on HCV RNA replication. Briefly, using the HCV strain 1b sequence described in the Lohmann paper (Assession number: AJ238799), an HCV cDNA was synthesized by Operon Technologies, Inc. (Alameda, Calif.), and the full-length replicon was then assembled in plasmid pGem9zf(+) (Promega, Madison, Wis.) using standard molecular biology techniques. The replicon consists of (i) the HCV 5′ UTR fused to the first 12 amino acids of the capsid protein, (ii) the neomycin phosphotransferase gene (neo), (iii) the IRES from encephalomyocarditis virus (EMCV), and (iv) HCV NS3 to NS5B genes and the HCV 3′ UTR. Plasmid DNAs were linearized with ScaI and RNA transcripts were synthesized in vitro using the T7 MegaScript transcription kit (Ambion, Austin, Tex.) according to manufacturer's directions. In vitro transcripts of the cDNA were transfected into the human hepatoma cell line, HUH-7. […] Resulting cell lines were characterized for positive and negative strand RNA production and protein production over time.
The HCV replicon FRET assay was developed to monitor the inhibitory effects of compounds described in the disclosure on HCV viral replication. HUH-7 cells, constitutively expressing the HCV replicon, were grown in Dulbecco's Modified Eagle Media (DMEM) (Gibco-BRL) containing 10% Fetal calf serum (FCS) (Sigma) and 1 mg/ml G418 (Gibco-BRL). Cells were seeded the night before (1.5×10^4 cells/well) in 96-well tissue-culture sterile plates. Compound and no compound controls were prepared in DMEM containing 4% FCS, 1:100 Penicillin/Streptomysin (Gibco-BRL), 1:100 L-glutamine and 5% DMSO in the dilution plate (0.5% DMSO final concentration in the assay). Compound/DMSO mixes were added to the cells and incubated for 4 days at 37° C. After 4 days, cells were first assessed for cytotoxicity using alamar Blue (Trek Diagnotstic Systems) for a CC50 reading. The toxicity of compound (CC50) was determined by adding 1/10th volume of alamar Blue to the media incubating the cells. After 4 hours, the fluorescence signal from each well was read, with an excitation wavelength at 530 nm and an emission wavelength of 580 nm, using the Cytofluor Series 4000 (Perspective Biosystems). Plates were then rinsed thoroughly with Phosphate-Buffered Saline (PBS) (3 times 150 μl). The cells were lysed with 25 μl of a lysis assay reagent containing an HCV protease substrate (5× cell Luciferase cell culture lysis reagent (Promega #E153A) diluted to 1× with distilled water, NaCl added to 150 mM final, the FRET peptide substrate (as described for the enzyme assay above) diluted to 10 μM final from a 2 mM stock in 100% DMSO. […]. The plate was then placed into the Cytofluor 4000 instrument which had been set to 340 nm excitation/490 nm emission, automatic mode for 21 cycles and the plate read in a kinetic mode. EC50 determinations were carried out as described for the IC50 determinations.

Assay [2] relates to human pancreatic chymotrypsin. The assay is described as follows: Specificity assay, chymotrypsin (pNA substrate). It counts as biochemical. The method, then:
(§1) The specificities of compounds of the present disclosure were determined against a variety of serine proteases: human neutrophil elastase (HNE), porcine pancreatic elastase (PPE) and human pancreatic chymotrypsin and one cysteine protease: human liver cathepsin B. In all cases, a 96-well plate format protocol using colorimetric p-nitroaniline (pNA) substrate or fluorometric Amino-Methyl-Coumarin (AMC) substrate, specific for each enzyme was used as described previously (PCT Patent Application No. WO 00/09543) with some modifications. All enzymes were purchased from Sigma or EMDbiosciences while the substrates were from Bachem.
Each pNA assay included a 2 h enzyme-inhibitor pre-incubation at room temperature followed by addition of substrate and hydrolysis to ˜15% conversion as measured on a Spectramax Pro microplate reader. The cathepsin B assay was initiated by adding substrate to a 10 min enzyme-inhibitor pre-incubation at room temperature, and the assay plate measured immediately using the Cytofluor Series 4000. Compound concentrations varied from 100 to 0.4 μM depending on their potency.
50 mM Tris(hydroxymethyl)aminomethane hydrochloride (Tris-HCl) pH 8, 0.5 M Sodium Sulfate (Na2SO4), 50 mM NaCl, 0.1 mM EDTA, 3% DMSO, 0.01% Tween-20 with: […]
(§2) The percentage of inhibition was calculated using the formula: [1−((UVinh−UVblank)/(UVctl−UVblank))]×100 […]

Another assay addresses T1, human liver cathepsin B (Homo sapiens, UniProt P07858).
T1 construct: purchased Sigma or EMDbiosciences; host or cells: human liver (as named)
The experiment in a line: Specificity assay, cathepsin B (AMC substrate). In kind it is biochemical. The method, then: as §1
Each pNA assay included a 2 h enzyme-inhibitor pre-incubation at room temperature followed by addition of substrate and hydrolysis to ˜15% conversion as measured on a Spectramax Pro microplate reader. The cathepsin B assay was initiated by adding substrate to a 10 min enzyme-inhibitor pre-incubation at room temperature, and the assay plate measured immediately using the Cytofluor Series 4000. Compound concentrations varied from 100 to 0.4 μM depending on their potency. […]
as §2

For `COc1c(O[C@@H]2C[C@H]3C(=O)N[C@]4(C(=O)NS(=O)(=O)C5CC5)C[C@H]4/C=C\CCCCC[C@H](NC(=O)OC(C)(C)C)C(=O)N3C2)ccc2c(Cl)nccc12` [Compound 3], the 50% effective concentration (EC50) (usually the concentration at which the effect is half-maximal) in assay [1] (96 h, HUH-7 replicon cells, 4 days, read-out: EC50 in the replicon FRET assay) was 14.6 nM; in assay [1] (Huh-7, HCV replicon, which replicon assay not stated, read-out: EC50 Activity Range), below 100 nM. Also, the 50% inhibitory concentration (IC50) (usually the concentration needed to halve the response being measured) in assay [2] is above 100000 nM; against human liver cathepsin B, at least 100000 nM.
